# Measured values as given in ChEMBL document CHEMBL3217679, “Synthesis and biological activity profile of novel 2-cinnamylidene-1,3-diones related to coruscanone A: promising new antileishmanial agents” (Medchemcomm, 2012).
# Activity calls are given as the source filed them. The rule behind the calls is not given here.
# Columns and labels:
# Aspergillus fumigatus = test: Antifungal activity against Aspergillus fumigatus ATCC 90906 assessed as growth inhibition after 46 to 50 hrs by alamar blue assay; format: functional, organism-based
# Plasmodium falciparum [1] = test: Antiparasitic activity against chloroquine-resistant Plasmodium falciparum W2 assessed as growth inhibition at 16 uM after 48 hrs by pLDH assay; format: functional, organism-based
# Nakaseomyces glabratus = test: Antifungal activity against Candida glabrata ATCC 90030 assessed as growth inhibition after 46 to 50 hrs by modified CLSI method; format: functional, organism-based
# Cryptococcus neoformans = test: Antifungal activity against Cryptococcus neoformans ATCC 90113 assessed as growth inhibition after 70 to 74 hrs by modified CLSI method; format: functional, organism-based
# Candida albicans = test: Antifungal activity against Candida albicans ATCC 90028 assessed as growth inhibition after 46 to 50 hrs by modified CLSI method; format: functional, organism-based
# [2] = Cytotoxicity against African green monkey Vero cells by neutral red assay; format: cell-based; settings: chlorocebus sabaeus, read-out: TC50 (the source's name)
# Pichia kudriavzevii = test: Antifungal activity against Candida krusei ATCC 6258 assessed as growth inhibition after 46 to 50 hrs by modified CLSI method; format: functional, organism-based
# Leishmania donovani = test: Antiparasitic activity against Leishmania donovani S1 promastigotes assessed as growth inhibition after 72 hrs by alamar blue assay; format: functional, organism-based; settings: S1, 72 h
# Plasmodium falciparum [3] = test: Antiparasitic activity against chloroquine-sensitive Plasmodium falciparum D6 assessed as growth inhibition at 16 uM after 48 hrs by pLDH assay; format: functional, organism-based
SMILES,growth inhibition (GI) (Aspergillus fumigatus),growth inhibition (GI) (Plasmodium falciparum [1]),IC50 (Nakaseomyces glabratus),IC50 (Cryptococcus neoformans),growth inhibition (GI) (Candida albicans),CC50 [2],IC50 (Pichia kudriavzevii),IC50 (Leishmania donovani),IC90 (Leishmania donovani),growth inhibition (GI) (Plasmodium falciparum [3])
CC(=O)/C(=C\C=C\c1ccccc1)C(=O)OC(C)(C)C,inactive,inactive,> 60 µM,> 60 µM,inactive,> 17.5 µM,> 60 µM,46.6 µM,99.2 µM,inactive
O=C1CCC(=O)C1=C/C=C/c1ccc(Br)cc1,inactive,inactive,> 60 µM,26.9 µM,inactive,> 16.3 µM,> 60 µM,8.58 µM,14.1 µM,inactive
COc1ccc(/C=C/C=C2C(=O)CCC2=O)cc1,inactive,,35 µM,13.4 µM,inactive,> 19.6 µM,24.1 µM,7.01 µM,19.8 µM,
C[C@@H]1[C@H](O)[C@@H](C)/C=C/C=C/C=C/C=C/C=C/C=C/C=C/[C@H](O[C@@H]2O[C@H](C)[C@@H](O)[C@H](N)[C@@H]2O)C[C@@H]2O[C@](O)(C[C@@H](O)C[C@@H](O)[C@H](O)CC[C@@H](O)C[C@@H](O)CC(=O)O[C@H]1C)C[C@H](O)[C@H]2C(=O)O [AMPHOTERICIN B],,,0.28 µM,0.35 µM,inactive,7.6 µM,0.78 µM,0.31 µM,1.09 µM,
C/C=C/C=C/C=C1C(=O)CC(C)(C)CC1=O,inactive,inactive,> 60 µM,> 60 µM,inactive,> 21.8 µM,> 60 µM,45.8 µM,> 100 µM,inactive
CC(=O)C(=CC=C(c1ccccc1)c1ccccc1)C(C)=O,inactive,inactive,> 60 µM,35.3 µM,inactive,> 16.4 µM,> 60 µM,9.29 µM,66.1 µM,inactive
COc1ccc(/C=C/C=C2C(=O)CC(c3ccccc3)CC2=O)cc1 (centres undefined),inactive,inactive,> 60 µM,> 60 µM,inactive,> 14.3 µM,> 60 µM,7.52 µM,14.7 µM,inactive
O=C1CCC(=O)C1=C/C=C/c1ccccc1,inactive,inactive,> 60 µM,11.9 µM,inactive,> 22.4 µM,42.6 µM,2.16 µM,3.58 µM,inactive
CC(=O)C(=C/C=C/c1ccccc1)C(C)=O,inactive,inactive,> 60 µM,> 60 µM,inactive,> 22.2 µM,> 60 µM,19.1 µM,52.3 µM,inactive
CC1(C)CC(=O)C(=C/C=C/c2ccccc2)C(=O)C1,inactive,inactive,35.3 µM,19 µM,inactive,> 18.7 µM,> 60 µM,20.1 µM,27.5 µM,inactive
CC1(C)CC(=O)C(=CC=C(c2ccccc2)c2ccccc2)C(=O)C1,inactive,inactive,> 60 µM,23.6 µM,inactive,> 14.4 µM,> 60 µM,9.38 µM,26.6 µM,inactive
C/C=C/C=C/C=C1C(=O)CCCC1=O,inactive,inactive,> 60 µM,> 60 µM,inactive,> 25 µM,> 60 µM,56.8 µM,> 100 µM,inactive
CC1(C)CC(=O)C(=C/C=C/c2ccc(Br)cc2)C(=O)C1,inactive,inactive,> 60 µM,24.7 µM,inactive,> 14.3 µM,> 60 µM,9.6 µM,18.6 µM,inactive
O=C1CCCC(=O)C1=CC=C(c1ccccc1)c1ccccc1,inactive,inactive,> 60 µM,14.5 µM,inactive,> 15.7 µM,> 60 µM,10.2 µM,26.1 µM,inactive
CC1(C)CC(=O)C(=C/C=C/c2ccc(F)cc2)C(=O)C1,inactive,inactive,35.6 µM,16.6 µM,inactive,> 17.5 µM,> 60 µM,10.7 µM,25 µM,inactive
CC(=O)C(=C/C=C/c1ccc(Br)cc1)C(C)=O,inactive,inactive,> 60 µM,11.7 µM,inactive,> 16.2 µM,> 60 µM,9.55 µM,24.6 µM,inactive
CC1(C)CCC(=O)/C(=C\C=C\c2ccccc2)C1=O,inactive,inactive,> 60 µM,19.9 µM,inactive,> 18.7 µM,> 60 µM,11.8 µM,20.1 µM,inactive
COC(/C=C/c1ccccc1)=C1\C(=O)C=C(C)C1=O [CORUSCANONE A],,,,,,19.3 µM,,,,
N=C(N)c1ccc(OCCCCCOc2ccc(C(=N)N)cc2)cc1 [PENTAMIDINE],,,,,inactive,,,3.82 µM,12.4 µM,
COc1ccc(/C=C/C=C2C(=O)CCCC2=O)cc1,inactive,inactive,56 µM,44.7 µM,inactive,> 18.6 µM,> 60 µM,19.5 µM,91.7 µM,inactive
COc1ccc(/C=C/C=C(C(C)=O)C(C)=O)cc1,inactive,inactive,> 60 µM,> 60 µM,inactive,> 19.5 µM,> 60 µM,38.5 µM,> 100 µM,inactive
COc1ccc(/C=C/C=C2C(=O)CC(C)(C)CC2=O)cc1,inactive,inactive,> 60 µM,38.2 µM,inactive,> 16.7 µM,> 60 µM,30.6 µM,68.9 µM,inactive
